Measurements reported in patent US20210238257A1, “De Novo Formation of the Biliary System by Hepatocyte Transdifferentiation” (THE REGENTS OF THE UNIVERSITY OF CALIFORNIA, priority 2018, published 2021).

System: hepatocytes lacking RBPJ and HNF6
Test: In vitro conversion assay: 3D culture of hepatocyte spheroids in collagen gels
Format: cell-based, mouse
Details: 10 μM SB-431542 vs vehicle (DMSO)
Experimental: Genomic DNA was isolated from cells using QIAamp DNA Micro Kit or DNeasy Blood & Tissue Kit (Qiagen). RNA was extracted using Trizol Reagent (Thermo Fisher Scientific) and purified by isopropanol precipitation (cells in collagen gel) or purified using RNAeasy Mini Kit (Qiagen) (liver tissue). Reverse transcription was performed using qScript cDNA Supermix (Quanta Biosciences). qPCR was performed using SYBR green reagent (Thermo Fisher Scientific) in a ViiA 7 system (Thermo Fisher Scientific). Reactions were performed in triplicate, and expression was normalized to an Rbpj (genotyping) or Gapdh (Glyceraldehyde-3-phosphate Dehydrogenase; gene expression) reference and quantified using the ΔΔCt method.
In vitro 3D culture of hepatocytes to induce biliary conversion was carried out as previously reported^21 with the following modifications. Hepatocytes were isolated from 8-10-week-old Rbpj^f/f;Hnf6^f/f mice injected with 1×10^12 vgs of AAV8-Ttr-Cre 2 weeks prior to delete RBPJ and HNF6. Hepatocytes were isolated by 2-step collagenase perfusion followed by purification through a Percoll gradient, all in the absence of serum. Cells were grown on Primaria plates for 6 days to form spheroids. Spheroids were cultured in collagen gels (Cultrex Rat Collagen I, Lower Viscosity, Trevigen) in the presence of 10 μM SB-431542 (Selleckchem) or vehicle (DMSO). The medium was changed every other day.

SMILES: NC(=O)c1ccc(-c2nc(-c3ccc4c(c3)OCO4)c(-c3ccccn3)[nH]2)cc1 [SB-431542]
- biliary differentiation and morphogenesis of hepatocytes: blocks biliary differentiation and morphogenesis
